Experimental data reported in patent US12083133B2, “Use of cholecalciferol as adjuvant in the treatment of muscular dystrophies” (ABIOGEN PHARMA SPA, priority 2021, dated 2024).
“Also recorded” adds a separate entry of the source.

Tests used:
muscular dystrophies = conditions: state of the art; cited from earlier work
mdx mice = test: Four limb hang test; type: in vivo, mouse
Source text: For the study, it was chosen as experimental model the mdx (Muscular Dystrophy X-linked) mouse, which has long been used to evaluate the efficacy of drugs against muscular dystrophy and other degenerative diseases that affect skeletal muscles, inducing functional loss. These mice represent the reference animal model for clinical projections, also because they made it possible to overcome the obstacle of the limited availability of human biopsy material for experimental purposes.
The model responds to both steroidal and non-steroidal anti-inflammatory and immunosuppressive treatments and it is also used to study the differential gene and protein expression induced by the various treatments. The test system altogether consisted in 50 C57BL/10ScSn-Dmdxdx/J male mice and 27 C57/BL male mice of about 4-5 weeks of age.
After a short pre-housing period (about 4 days after arrival in the animal enclosure), the animals were subjected to baseline behavioural analyses, as described hereafter. The start time of the analyses, after the pre-housing period, is defined zero time (t=0).
Mice were also subjected to physical exercise with a rotating treadmill (Ugo Basile, Milan) for 15 minutes twice a week at a speed of 12 m/min, to standardize the pathology.
This test was performed at the beginning and at the end of the trial (baseline and final). It is performed using a device that uses a steel grid to measure the mouse's ability to support itself on all four limbs, opposing the force of gravity. The animal is placed on the grid (40×40 cm, delimited by iron strips placed perpendicular to the grid and 5 cm high, with 1 cm squares formed by 1 mm diameter steel wire) which is inverted so that the animal finds itself upside down and hangs on with its paws, about 30 cm from the floor. […] The grid is kept in position for a maximum of 5 minutes and the time, in seconds, during which the animal is able to hang with its paws is recorded.
The results of test are shown in the following table 2 and are expressed in seconds and normalized for the animal's weight. Groups 1-8 reported herein are those described in table 1.

[1] = test system: muscle tissue of mdx mice; test: Histopathologic analyses of muscle tissue (haematoxylin-eosin), graded 0 (absent) to 3 (very high); type: in vivo, mouse
Protocol: These analyses were performed on the material taken during necropsy performed after the sacrifice of the animals of groups 7 and 8. In particular, the quadriceps femoris, the diaphragm and the anterior tibial muscle were collected.
The samples taken and fixed were decalcified, embedded in paraffin according to the known technique, cut into 5-7 μm thick sections and stained with haematoxylin-eosin. The following forms of alteration were evaluated at the muscle tissue level, each of which was classified according to a grade from 0 (absent) to 3 (very high): • Atrophy • Degeneration • Inflammation • Oedema • Presence of adipose tissue • Hypertrophy • Regeneration • Mineralization Results

Pax7 = test: Immunohistochemistry with anti-Pax7 antibody (satellite cells); type: in vivo, mouse
Protocol: (§1) Skeletal muscle growth and regeneration are attributable to satellite cells, which are stem cells resident in the basal lamina surrounding each myofiber. The expression of Pax7 (Paired-Box Transcription Factor 7) is constitutive, that is, this factor is expressed in these cells both in the quiescent and in the activation phase. When satellite cells are activated, they also co-express MyoD, which correlates with active muscle regeneration.
(§2) The expression of Pax7 was then analysed for the identification of satellite cells (progenitors) located under the basal lamina of myofibers, and of MyoD, expressed by myoblasts during proliferation.
(§3) Analyses were performed on the groups after 24 weeks of treatment.
(§4) Samples for immunohistochemistry were included in OCT, placed in isopentane, frozen with liquid nitrogen and kept at −80° C. Anti-Pax7 antibodies were used to label satellite cells and anti-MyoD for myoblasts.

MyoD = test: Immunohistochemistry with anti-MyoD antibody (proliferating myoblasts); type: in vivo, mouse; conditions: mdx mice, 24 weeks of treatment
Protocol: as §1, §2, §3, §4

[2] = test system: muscle fibres of mdx mice; test: Fluorescence microscopy of muscle fibres (DAPI, anti-WGA); type: in vivo, mouse; conditions: 12 weeks of treatment, versus untreated control mdx mice
Source text: In fluorescence microscopy analyses DAPI staining (blue) was used for nuclei, while an anti-WGA antibody (WGA, or wheat germ agglutinin, Alexa Fluor® 594 conjugate), which stains cell membranes in red, was used to mark muscle fibres.

[3] = cited from earlier work
Duchenne dystrophy = conditions: state of the art; optimal dose 0.75 mg/kg per day; cited from earlier work
[4] = group 8, mdx mice, 175 μg/kg/day once a week, t = 24 weeks, grade 0 to 3

CC(C)(S)[C@@H](N)C(=O)O [penicillamine]
Efficacy as therapy of muscular dystrophies (muscular dystrophies): ineffective

vitamin E
Efficacy as therapy of muscular dystrophies (muscular dystrophies): ineffective

C=C1CC[C@H](O)C/C1=C/C=C1\CCC[C@]2(C)[C@@H]([C@H](C)CCCC(C)C)CC[C@@H]12 [cholecalciferol]
Time in seconds (normalized for the animal's weight) t = 12 weeks (mdx mice; group 5, mdx mice, 175 μg/kg/day (7000 IU/day) per os once per week for 12 weeks): 0.8 s | Time in seconds (normalized for the animal's weight) t = 0 (mdx mice; group 5, mdx mice, baseline before treatment (12-week arm)): 0.9 s | Time in seconds (normalized for the animal's weight) t = 24 weeks (mdx mice; group 8, mdx mice, 175 μg/kg/day (7000 IU/day) per os once per week for 24 weeks): 0.9 s | Time in seconds (normalized for the animal's weight) t = 12 weeks (mdx mice; group 8, mdx mice, 175 μg/kg/day (7000 IU/day) per os once per week, 24-week arm): 1.2 s | Time in seconds (normalized for the animal's weight) t = 0 (mdx mice; group 8, mdx mice, baseline before treatment (24-week arm)): 1.7 s | Increase in resistance to detachment from the grid, in terms of time, versus untreated mdx animals (mdx mice; mdx mice, test at 24 weeks): 80% | Medium Grading: Atrophy ([1]; group 8, mdx mice, 175 μg/kg/day once a week, t = 24 weeks, grade 0 (absent) to 3 (very high)): 0.44 | Medium Grading: Degeneration [1, 4]: 0 | Medium Grading: Hypertrophy [1, 4]: 2.11 | Medium Grading: Inflammation [1, 4]: 0 | Medium Grading: Mineralization [1, 4]: 0.33 | Medium Grading: Oedema [1, 4]: 0.44 | Medium Grading: Presence of adipose tissue [1, 4]: 0.11 | Medium Grading: Regeneration [1, 4]: 2.66 | Microscopic examination of muscle tissue stained with haematoxylin-eosin (in words) ([1]; mdx mice treated for 24 weeks): areas of regeneration and hypertrophy, and only in few cases muscular atrophy, moreover at low levels | Positivity of muscle tissue for anti-Pax7 antibody (marker of satellite cells) (Pax7; mdx mice treated with cholecalciferol): highly positive | Labelling with anti-Pax7 antibody (satellite cells) (Pax7; mdx mice, 24 weeks of treatment, versus vehicle-treated mdx mice): clearly present and localized on the contours of the muscle fibres; also recorded: more evident | Labelling with anti-MyoD antibody / expression of MyoD (MyoD): appears extensive; also recorded: restored the expression of MyoD to levels similar to those of wild-type mice | Structure of muscle fibres and position of cell nuclei [2]: cell nuclei distributed both centrally and peripherally and less disrupted muscle fibres; also recorded: visibly less disrupted | Blood half-life (T1/2) ([3]; estimated): 19 to 25 h | Functional half-life ([3]; related to slow release from adipose tissue): several weeks

C[C@]12C=CC(=O)C=C1CC[C@@H]1[C@@H]2C(=O)C[C@@]2(C)[C@H]1CC[C@]2(O)C(=O)CO [prednisone]
Delay of the progression time of Duchenne dystrophy (Duchenne dystrophy): more than 3 years

C[C@]12CC[C@H]3[C@@H](CCC4=CC(=O)CC[C@@]43C)[C@@H]1CC[C@@H]2O [testosterone]
Efficacy as therapy of muscular dystrophies (muscular dystrophies): ineffective
